Source: patent publication US11413278B2, “Compounds and methods for promoting stress resistance” (priority 2015, dated 2022)
Like-named read-outs stand apart in the source and are kept apart here.

Tests used:
WI-38 cells [1] = experiment: Propidium iodide (PI) cell-death imaging upon H2O2 stress; type: cell-based, human; conditions: for Assay 7: H2O2-resistant, at 10 uM, validated by propidium iodide (PI) cell-death imaging: w/H2O2, 3 hrs/4 hrs/5 hrs, YES/NO; for cytotoxicity at 10 µM: Homo sapiens, WI-38
NRF2 = experiment: qPCR analysis of NRF2-regulated genes; type: cell-based, human; conditions: for fold induction at 10 µM: Homo sapiens
Method in brief: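 WI-38 cells treated with compound at 10 μM for 24 hrs, then processed by Cells-to-Ct for RNA isolation, RT and qPCR of NRF2-regulated genes (HMOX1, NQO1, GCLC, GSTM1). Expression normalized to B2M, PPIA and GAPDH; siRNA knockdown of FOXO3 or NRF2 (10 nM) preceded treatment in some runs.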

WI-38 cells [2] = experiment: Long-term effects on cell viability (5 days, ATP; morphology, PI imaging); type: cell-based; conditions: for viability at 10 µM: Homo sapiens, WI-38, 120 h, read-out: ATP luminescence by day-5 normalized;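 on Luminescence signal for ATP measurement, day-2 Average: compounds at 10 µM with ATP read daily over 5 days of treatment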;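 on Luminescence signal for ATP measurement, day-3 Average: compounds at 10 µM with ATP read daily over 5 days of treatment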;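 on Luminescence signal for ATP measurement, day-4 Average: compounds at 10 µM with ATP read daily over 5 days of treatment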;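 on Luminescence signal for ATP measurement, day-5 Average: compounds at 10 µM with ATP read daily over 5 days of treatment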
Procedure: In addition, cell death was scored by PI-imaging on day 2 and day 5 of treatment.
Applicants introduced molecules (at 10 uM final concentration) to WI-38 fibroblasts and then assayed cell viability (through ATP measurement) everyday, during a course of 5 days of continuous treatment. […] Applicants also examined the morphology and scored cell death (propidium iodide staining) for cells treated with the above molecules. Of these 14 molecules, some appeared to cause cell toxicity. […] Despite the observed long-term toxicity, these molecules are still interesting as they may act as anti-tumor agents in vivo, should they have more pronounced cytotoxicity on highly proliferative tumor cells. When cells were incubated with these molecules for ˜24 hrs and then subject to hydrogen peroxide for 3 hrs, these molecules are all protective. […] Some of these small molecules may be toxic by themselves under certain conditions, but by inducing protective mechanisms, they may trigger “hormesis” and therefore protect cells from oxidative stress.

[3] = Summary score for characterization of 38 core set hits; conditions: for D = Triple resistant: 2-point score, multiplex resistance (cadmium, MMS, H2O2); for S = Sum of Negative scores: human; for C = H2O2- & Cd-resistant: score, resistance to both H2O2 and cadmium
Procedure: 38 “core set” small molecules are listed and are assigned a score, based on the result for each individual characterization. From our small molecule screen for H2O2-resistance, we isolated 61 top hits. […] Specifically, a 2-point score was assigned to the most well-known and prominent longevity-related phenotypes, such as multiplex resistance, activation of FOXO3 and/or NRF2, and down-regulation of mTOR. Small molecules were also analyzed for their ability to extend C. elegans' lifespan in 4 to 6 independent trials, and the lifespan score scale is from 0 to 2: 0 for no obvious effects, 1 for lifespan extension observed in 2 trials, 2 for observed in more than 2 trials. Certain molecules appeared to have DNA-damaging effects and/or potential cell-toxicity in cultured human cells, and they receive a negative point.

[4] = system: human dermal fibroblast (HDF) primary cells; experiment: H2O2-resistance in primary human dermal fibroblasts; type: cell-based; conditions: for fold induction at 10 µM: Homo sapiens; for Assay 6: H2O2-resistant, at 10 uM, human dermal fibroblast (HDF) primary cells: YES/NO
[5] = H2O2 3 hrs, 10 uM, n = 6, negative control 5.44% ± 0.79%, read-out: Percentage of propidium iodide-positive dead cells (under H2O2 stress treatment), 3 hrs
[6] = H2O2 4 hrs, 10 uM, n = 6, negative control 16.81% ± 1.42%, read-out: Percentage of propidium iodide-positive dead cells (under H2O2 stress treatment), 4 hrs
[7] = pre-treatment at 10 uM, 3.5 hours of H2O2, DMSO control 27.4% ± 6.5%, */**/*** = reduced by one/two/three standard deviations, read-out: Percentage of propidium iodide-positive dead cells (under H2O2 stress treatment), at 10 uM
[8] = 24 h, Assay 12(o), at 10 uM, qPCR, read-out: Induction of NRF2-regulated genes: HMOX1 normalized fold-change
[9] = rounded fold change, WI-38 cells, 10 μM, 24 hrs (RP11 for Gr-1D, RP29 for Gr-4D), read-out: Summary of effects on NRF2-regulated genes: HMOX1
[10] = 10 μM, 24 hrs, WI-38 cells, qPCR, normalized to B2M, n = 4, read-out: HMOX1 expression, normalized fold change (NRF2-regulated gene)
[11] = WI-38 cells, 10 μM, 24 hrs, n=4, qPCR normalized by B2M, read-out: GCLC Normalized fold change
[12] = WI-38 cells, 10 μM, 24 hrs, n=4, qPCR normalized by B2M, read-out: GSTM1 Normalized fold change
[13] = WI-38 cells, 10 μM, 24 hrs, n=4, qPCR normalized by B2M, read-out: HMOX1 Normalized fold change
[14] = WI-38 cells, 10 μM, 24 hrs, n=4, qPCR normalized by B2M, read-out: NQO1 Normalized fold change
[15] = Batch 1, 10 μM, day-1, n = 6, day-0 luminescence = 320956 ± 24708
[16] = Batch 1, 10 μM, day-2, n = 6, day-0 luminescence = 320956 ± 24708
[17] = Batch 1, 10 μM, day-3, n = 6, day-0 luminescence = 320956 ± 24708
[18] = Batch 1, 10 μM, day-4, n = 6, day-0 luminescence = 320956 ± 24708
[19] = Batch 1, 10 μM, day-5, n = 6, day-0 luminescence = 320956 ± 24708
[20] = Batch 1, 10 μM, day-5, DMSO ctrl = 100.0%
[21] = Experiment 1, HDF cells, read-out: Experiment 1, HDF cells (under H2O2 stress treatment), at 10 uM (fold change)
[22] = Experiment 2, HDF cells, read-out: Experiment 2, HDF cells (under H2O2 stress treatment), at 10 uM (fold change)
[23] = H2O2 5 hrs, 10 uM, n = 6, negative control 22.50% ± 1.53%, read-out: Percentage of propidium iodide-positive dead cells (under H2O2 stress treatment), 5 hrs
[24] = 24 h, Assay 12(o), at 10 uM, qPCR, read-out: Induction of NRF2-regulated genes: GCLC normalized fold-change
[25] = rounded fold change, WI-38 cells, 10 μM, 24 hrs, read-out: Summary of effects on NRF2-regulated genes: GCLC
[26] = 10 μM, 24 hrs, WI-38 cells, qPCR, normalized to B2M, n = 4, read-out: GCLC expression, normalized fold change (NRF2-regulated gene)

| SMILES | Assay 7: H2O2-resistant, at 10 uM, validated by propidium iodide (PI) cell-death imaging (WI-38 cells [1]; 10 uM) | cytotoxicity at 10 µM (WI-38 cells [1]; [5]) [%] | cytotoxicity at 10 µM (WI-38 cells [1]; [6]) [%] | cytotoxicity at 10 µM (WI-38 cells [1]; [7]) [%] | F = Potential NRF2 Activation (NRF2; 2-point score) | fold induction at 10 µM (NRF2; [8]) | fold induction at 10 µM (NRF2; [9]) | fold induction at 10 µM (NRF2; [10]) | fold induction at 10 µM (NRF2; [11]) | fold induction at 10 µM (NRF2; [12]) | fold induction at 10 µM (NRF2; [13]) | fold induction at 10 µM (NRF2; [14]) | F = Potential NRF2 Activation (NRF2; summary score) | Luminescence signal for ATP measurement, day-1 Average (WI-38 cells [2]; [15]) | O = Potential toxicity (WI-38 cells [2]; human, 5 days, 10 μM) | Q = Potential toxicity (WI-38 cells [2]; human, 5 days, 10 μM) | D = Triple resistant [3] | S = Sum of Negative scores [3] | C = H2O2- & Cd-resistant [3] | Assay 6: H2O2-resistant, at 10 uM, human dermal fibroblast (HDF) primary cells [4] | also measured |
| --- | --- | --- | --- | --- | --- | --- | --- | --- | --- | --- | --- | --- | --- | --- | --- | --- | --- | --- | --- | --- | --- |
| O=C(NCc1cccnc1)/C(=C\c1ccc(Br)cc1)S(=O)(=O)c1ccccc1 [Gr-7B] | YES | 5.88 | 6.44 | 4.7 | 0 | 17.9 | 54.1 | 54.1 | 1.8 | 0.981 | 54.2 | 1.41 | 0 | 311883 | 1 | 1 | 0 | 1 | 0 | YES | Luminescence signal for ATP measurement, day-2 Average (WI-38 cells [2]; [16]): 56498; Luminescence signal for ATP measurement, day-3 Average (WI-38 cells [2]; [17]): 40001; Luminescence signal for ATP measurement, day-4 Average (WI-38 cells [2]; [18]): 44298; Luminescence signal for ATP measurement, day-5 Average (WI-38 cells [2]; [19]): 40768; viability at 10 µM (WI-38 cells [2]; [20]): 4%; Reduction of ATP content after 5 days of continuous incubation (WI-38 cells [2]; human, 5 days, 10 μM): more than 40%; fold induction at 10 µM [4, 21]: 3.71; fold induction at 10 µM [4, 22]: 3.35 |
| O=C(c1ccc([N+](=O)[O-])o1)N1CCc2ccccc21 [O13] | YES | 1.13 | 2.56 | 4.8 | 2 | 5.52 | 5.52 | 5.52 | 1.99 | 1.31 | 5.52 | 2.95 | 2 | 546070 | 0 | 0 | 0 | 0 | 0 | YES | cytotoxicity at 10 µM (WI-38 cells [1]; [23]): 7.03%; Potential NRF2 Activation (>=2 target genes induced, by >=1.5-fold) (NRF2; Assay 13(p)): YES; fold induction at 10 µM (NRF2; [24]): 1.99; fold induction at 10 µM (NRF2; 24 h, Assay 12(o), at 10 uM, qPCR, read-out: Induction of NRF2-regulated genes: GSTM1 normalized fold-change): 1.31; fold induction at 10 µM (NRF2; 24 h, Assay 12(o), at 10 uM, qPCR, read-out: Induction of NRF2-regulated genes: NQO1 normalized fold-change): 2.95; fold induction at 10 µM (NRF2; rounded fold change, WI-38 cells, 10 μM, 24 hrs (RP29 for Gr-4D), read-out: Summary of effects on NRF2-regulated genes: GSTM1): 1.31; fold induction at 10 µM (NRF2; rounded fold change, WI-38 cells, 10 μM, 24 hrs (RP29 for Gr-4D), read-out: Summary of effects on NRF2-regulated genes: NQO1): 2.95; fold induction at 10 µM (NRF2; [25]): 1.99; fold induction at 10 µM (NRF2; 10 μM, 24 hrs, WI-38, read-out: Expression of at least two NRF2 target genes): > 1.5; fold induction at 10 µM (NRF2; [26]): 1.99; fold induction at 10 µM (NRF2; 10 μM, 24 hrs, WI-38 cells, qPCR, normalized to B2M, n = 4, read-out: GSTM1 expression, normalized fold change (NRF2-regulated gene)): 1.31; fold induction at 10 µM (NRF2; 10 μM, 24 hrs, WI-38 cells, qPCR, normalized to B2M, n = 4, read-out: NQO1 expression, normalized fold change (NRF2-regulated gene)): 2.95; Luminescence signal for ATP measurement, day-2 Average (WI-38 cells [2]; [16]): 704210; Luminescence signal for ATP measurement, day-3 Average (WI-38 cells [2]; [17]): 806718; Luminescence signal for ATP measurement, day-4 Average (WI-38 cells [2]; [18]): 947030; Luminescence signal for ATP measurement, day-5 Average (WI-38 cells [2]; [19]): 992715; viability at 10 µM (WI-38 cells [2]; [20]): 96.7%; fold induction at 10 µM [4, 21]: 11.2; fold induction at 10 µM [4, 22]: 60.5 |
| Oc1ccccc1-c1noc(-c2ccccc2O)n1 [O27] | YES | 0.55 | 0.82 | 0.5 | 0 | – | – | – | – | – | – | – | 0 | – | 0 | 1 | 0 | 2 | 1 | YES | cytotoxicity at 10 µM (WI-38 cells [1]; [23]): 1.07%; Luminescence signal for ATP measurement, day-1 Average (WI-38 cells [2]): 431303; Luminescence signal for ATP measurement, day-2 Average (WI-38 cells [2]): 437195; Luminescence signal for ATP measurement, day-3 Average (WI-38 cells [2]): 517210; Luminescence signal for ATP measurement, day-4 Average (WI-38 cells [2]): 634360; Luminescence signal for ATP measurement, day-5 Average (WI-38 cells [2]): 587798; viability at 10 µM (WI-38 cells [2]): 57.2% |
| O=C(Nc1ccc(Cl)c(Cl)c1)c1ccc([N+](=O)[O-])o1 [Gr-1G] | YES | – | – | 34.4 | 0 | 0.5 | 0.5 | 0.5 | 1.57 | 0.948 | 0.503 | 1.26 | 0 | 449436 | 1 | 0 | 0 | 1 | 1 | YES | fold induction at 10 µM (NRF2; [24]): 1.57; fold induction at 10 µM (NRF2; [25]): 1.57; fold induction at 10 µM (NRF2; [26]): 1.57; Luminescence signal for ATP measurement, day-2 Average (WI-38 cells [2]; [16]): 530748; Luminescence signal for ATP measurement, day-3 Average (WI-38 cells [2]; [17]): 651695; Luminescence signal for ATP measurement, day-4 Average (WI-38 cells [2]; [18]): 866631; Luminescence signal for ATP measurement, day-5 Average (WI-38 cells [2]; [19]): 955703; viability at 10 µM (WI-38 cells [2]; [20]): 93.1% |
